Laboratory results from ChEMBL document CHEMBL1138728, “QSAR modelling of HIV-1 reverse transcriptase inhibition by benzoxazinones using a combination of P_VSA and pharmacophore feature descriptors” (Bioorg Med Chem Lett, 2004).

Target: Human immunodeficiency virus type 1 reverse transcriptase (Human immunodeficiency virus 1, UniProt Q72547)
Test: Inhibitory activity against HIV-1 reverse transcriptase

IC50: < 2000 nM
Structure (SMILES): CC(=O)Nc1ccc2c(c1)C(C#CC(C)C)(C(F)(F)F)OC(=O)N2 (stereo unspecified)
